Reference: ChEMBL document CHEMBL4725377, “The neuronal calcium ion channel activity of constrained analogues of MONIRO-1” (Bioorg Med Chem, 2020)

Legend:
[1] = biological target: T1, Voltage-dependent N-type calcium channel subunit alpha-1B (Homo sapiens, UniProt Q00975); assay: Inhibition of human N type calcium channel Cav2.2 endogenously expressed in SH-SY5Y cells assessed as calcium influx by FRIPR assay; format: cell-based
[2] = biological target: Voltage-dependent T-type calcium channel subunit alpha-1H (Homo sapiens, UniProt O95180); assay: Inhibition of human T type calcium channel Cav3.2 expressed in HEK-293T cells assessed as calcium influx by FRIPR assay; format: cell-based
[3] = Inhibition of human Cav3 expressed in HEK293 cells by whole cell patch clamp electrophysiology method; format: cell-based
[4] = biological target: T1, Voltage-dependent N-type calcium channel subunit alpha-1B; assay: Inhibition of human Cav2.2 expressed in HEK293 cells by whole cell patch clamp electrophysiology method; format: cell-based
[5] = Stability of the compound in Sprague-Dawley rat plasma assessed as half-life measured by RP-HPLC; format: ADME, cell-free

Chain of Voltage-dependent T-type calcium channel subunit alpha-1H (O95180 whole entry): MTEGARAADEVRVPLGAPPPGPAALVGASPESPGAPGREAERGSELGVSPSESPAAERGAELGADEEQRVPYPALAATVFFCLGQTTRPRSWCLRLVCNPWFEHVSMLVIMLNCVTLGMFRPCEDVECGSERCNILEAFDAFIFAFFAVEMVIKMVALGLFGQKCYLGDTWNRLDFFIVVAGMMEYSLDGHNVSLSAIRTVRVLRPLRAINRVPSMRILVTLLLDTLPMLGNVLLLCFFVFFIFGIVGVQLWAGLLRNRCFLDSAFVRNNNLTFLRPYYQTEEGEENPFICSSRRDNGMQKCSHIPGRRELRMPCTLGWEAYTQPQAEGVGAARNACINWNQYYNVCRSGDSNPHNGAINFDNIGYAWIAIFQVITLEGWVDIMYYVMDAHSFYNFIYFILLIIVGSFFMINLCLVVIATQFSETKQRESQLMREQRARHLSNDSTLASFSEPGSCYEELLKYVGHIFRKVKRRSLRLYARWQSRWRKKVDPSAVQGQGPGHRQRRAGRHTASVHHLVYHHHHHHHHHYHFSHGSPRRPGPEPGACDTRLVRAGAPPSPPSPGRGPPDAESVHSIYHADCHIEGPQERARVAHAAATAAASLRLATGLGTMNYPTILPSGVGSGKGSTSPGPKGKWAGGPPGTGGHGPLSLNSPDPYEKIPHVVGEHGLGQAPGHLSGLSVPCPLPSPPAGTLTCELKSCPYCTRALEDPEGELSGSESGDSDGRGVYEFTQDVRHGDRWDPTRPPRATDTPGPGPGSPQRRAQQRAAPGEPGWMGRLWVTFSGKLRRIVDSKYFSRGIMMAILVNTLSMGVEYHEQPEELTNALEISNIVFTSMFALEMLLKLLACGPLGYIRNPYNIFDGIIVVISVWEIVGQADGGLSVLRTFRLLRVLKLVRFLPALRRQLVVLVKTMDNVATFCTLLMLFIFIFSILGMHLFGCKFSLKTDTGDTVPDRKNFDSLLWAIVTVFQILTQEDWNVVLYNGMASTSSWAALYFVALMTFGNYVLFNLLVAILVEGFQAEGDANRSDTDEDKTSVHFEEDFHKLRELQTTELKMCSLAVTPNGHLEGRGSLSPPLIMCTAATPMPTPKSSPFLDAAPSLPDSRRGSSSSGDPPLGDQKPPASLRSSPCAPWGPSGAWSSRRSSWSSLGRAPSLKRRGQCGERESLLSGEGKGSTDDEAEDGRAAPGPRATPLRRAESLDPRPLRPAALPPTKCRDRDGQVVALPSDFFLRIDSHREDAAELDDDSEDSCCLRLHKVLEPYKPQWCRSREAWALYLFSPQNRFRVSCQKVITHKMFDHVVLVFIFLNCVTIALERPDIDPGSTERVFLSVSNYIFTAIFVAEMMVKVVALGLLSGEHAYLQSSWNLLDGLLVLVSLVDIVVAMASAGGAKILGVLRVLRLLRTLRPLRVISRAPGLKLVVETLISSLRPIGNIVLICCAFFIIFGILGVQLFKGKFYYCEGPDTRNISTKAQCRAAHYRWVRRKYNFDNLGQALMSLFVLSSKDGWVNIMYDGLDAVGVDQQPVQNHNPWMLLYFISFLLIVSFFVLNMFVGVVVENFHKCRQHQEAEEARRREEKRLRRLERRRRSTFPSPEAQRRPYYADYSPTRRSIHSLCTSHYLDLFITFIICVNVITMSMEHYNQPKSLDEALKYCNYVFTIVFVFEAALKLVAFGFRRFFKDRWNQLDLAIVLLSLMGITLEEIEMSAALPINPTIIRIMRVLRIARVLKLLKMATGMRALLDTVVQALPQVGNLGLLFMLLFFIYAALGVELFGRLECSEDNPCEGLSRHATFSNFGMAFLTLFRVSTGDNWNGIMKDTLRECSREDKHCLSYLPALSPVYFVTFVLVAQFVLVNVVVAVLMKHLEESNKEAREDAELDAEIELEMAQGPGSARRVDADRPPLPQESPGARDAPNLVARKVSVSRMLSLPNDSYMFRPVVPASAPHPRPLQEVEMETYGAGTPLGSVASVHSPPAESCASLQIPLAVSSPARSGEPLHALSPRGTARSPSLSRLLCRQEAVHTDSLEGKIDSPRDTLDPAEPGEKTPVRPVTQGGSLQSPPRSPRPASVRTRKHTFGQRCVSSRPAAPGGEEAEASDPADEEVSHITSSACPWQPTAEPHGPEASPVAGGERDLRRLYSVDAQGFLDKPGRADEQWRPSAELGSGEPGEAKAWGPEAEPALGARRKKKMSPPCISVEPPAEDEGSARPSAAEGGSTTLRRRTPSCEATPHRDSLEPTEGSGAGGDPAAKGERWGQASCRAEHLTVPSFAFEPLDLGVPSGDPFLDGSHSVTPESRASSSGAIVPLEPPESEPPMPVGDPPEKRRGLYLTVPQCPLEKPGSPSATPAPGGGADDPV
T1 sequence (Q00975 whole entry): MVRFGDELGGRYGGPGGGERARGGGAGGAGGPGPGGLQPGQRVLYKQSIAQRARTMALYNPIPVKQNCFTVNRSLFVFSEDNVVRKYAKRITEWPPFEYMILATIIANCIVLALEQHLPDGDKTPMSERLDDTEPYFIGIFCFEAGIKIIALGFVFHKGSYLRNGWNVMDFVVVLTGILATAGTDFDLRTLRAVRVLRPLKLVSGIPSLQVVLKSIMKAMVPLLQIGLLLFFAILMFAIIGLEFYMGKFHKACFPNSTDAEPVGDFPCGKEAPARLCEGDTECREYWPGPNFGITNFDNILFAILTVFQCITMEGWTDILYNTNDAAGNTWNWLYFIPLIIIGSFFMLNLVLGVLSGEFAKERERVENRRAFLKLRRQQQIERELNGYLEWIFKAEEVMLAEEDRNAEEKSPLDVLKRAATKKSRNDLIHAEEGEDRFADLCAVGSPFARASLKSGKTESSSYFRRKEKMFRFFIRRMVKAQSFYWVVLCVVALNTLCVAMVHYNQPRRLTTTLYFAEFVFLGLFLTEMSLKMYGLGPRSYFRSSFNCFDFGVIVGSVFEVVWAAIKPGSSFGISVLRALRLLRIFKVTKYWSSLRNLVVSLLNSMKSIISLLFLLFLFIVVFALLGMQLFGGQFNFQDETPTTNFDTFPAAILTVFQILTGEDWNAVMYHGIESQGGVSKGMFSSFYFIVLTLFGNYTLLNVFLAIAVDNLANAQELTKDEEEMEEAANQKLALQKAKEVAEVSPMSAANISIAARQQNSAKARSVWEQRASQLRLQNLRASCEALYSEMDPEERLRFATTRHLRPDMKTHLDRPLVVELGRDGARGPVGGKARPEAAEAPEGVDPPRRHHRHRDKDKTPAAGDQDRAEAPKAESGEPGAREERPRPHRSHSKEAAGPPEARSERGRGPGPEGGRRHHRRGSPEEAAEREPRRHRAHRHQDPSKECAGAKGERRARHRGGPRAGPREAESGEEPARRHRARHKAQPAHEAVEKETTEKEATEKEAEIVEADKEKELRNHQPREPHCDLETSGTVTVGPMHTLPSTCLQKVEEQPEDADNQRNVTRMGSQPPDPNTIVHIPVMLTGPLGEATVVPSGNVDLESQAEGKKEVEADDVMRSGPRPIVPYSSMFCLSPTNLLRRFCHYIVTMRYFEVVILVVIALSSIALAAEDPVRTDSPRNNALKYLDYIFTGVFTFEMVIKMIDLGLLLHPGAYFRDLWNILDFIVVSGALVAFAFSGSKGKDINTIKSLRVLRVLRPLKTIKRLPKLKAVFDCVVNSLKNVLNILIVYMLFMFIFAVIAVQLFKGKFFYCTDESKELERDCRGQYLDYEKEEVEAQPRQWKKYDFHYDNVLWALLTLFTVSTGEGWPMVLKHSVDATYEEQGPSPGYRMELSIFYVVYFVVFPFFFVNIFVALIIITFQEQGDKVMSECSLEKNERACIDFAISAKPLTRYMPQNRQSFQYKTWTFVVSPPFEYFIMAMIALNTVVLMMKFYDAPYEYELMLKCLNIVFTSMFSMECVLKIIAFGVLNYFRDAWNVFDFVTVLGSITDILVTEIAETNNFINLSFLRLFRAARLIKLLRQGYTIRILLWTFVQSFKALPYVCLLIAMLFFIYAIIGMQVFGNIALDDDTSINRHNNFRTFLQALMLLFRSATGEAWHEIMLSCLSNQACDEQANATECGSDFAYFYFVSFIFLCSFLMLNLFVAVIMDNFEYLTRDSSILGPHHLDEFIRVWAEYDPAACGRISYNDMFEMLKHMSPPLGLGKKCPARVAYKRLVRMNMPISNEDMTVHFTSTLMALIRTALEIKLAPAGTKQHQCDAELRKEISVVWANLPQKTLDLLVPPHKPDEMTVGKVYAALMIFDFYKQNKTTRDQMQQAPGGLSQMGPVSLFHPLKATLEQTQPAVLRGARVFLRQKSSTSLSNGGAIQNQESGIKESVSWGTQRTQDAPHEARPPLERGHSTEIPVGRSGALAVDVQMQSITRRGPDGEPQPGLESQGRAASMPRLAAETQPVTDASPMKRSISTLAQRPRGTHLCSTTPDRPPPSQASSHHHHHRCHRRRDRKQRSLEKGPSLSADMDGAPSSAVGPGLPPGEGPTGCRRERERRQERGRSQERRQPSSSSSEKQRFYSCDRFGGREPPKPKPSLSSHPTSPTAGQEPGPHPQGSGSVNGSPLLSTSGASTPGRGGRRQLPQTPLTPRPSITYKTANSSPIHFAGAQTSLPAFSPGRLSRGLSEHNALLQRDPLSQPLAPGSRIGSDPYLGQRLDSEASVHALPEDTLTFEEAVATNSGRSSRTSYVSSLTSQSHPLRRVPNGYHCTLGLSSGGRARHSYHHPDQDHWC

SMILES | IC50 [1] [µM] | IC50 [2] [µM] | further results
O=C(c1ccc(OCCCN2CCOCC2)cc1)N1c2ccccc2C=Cc2ccccc21 | 259 | 193 | –
CN(C)CCCOc1ccc(C(=O)Nc2ccccc2Oc2ccccc2)cc1 | 49 | 19 | –
NC(N)=NCCCOc1ccc(C(=O)Nc2ccccc2Oc2ccc(F)cc2)cc1 | 185 | – | IC50 [3]: 2 µM; IC50 [4]: 34 µM
O=C(c1ccc(OCCCN2CCCC2)cc1)N1c2ccccc2C=Cc2ccccc21 | 107 | 113 | –
O=C(c1ccc(OCCCN2CCCC2)cc1)N1c2ccccc2CCc2ccccc21 | 98 | 110 | –
COCCOC(=O)C1=C(C)NC(C)=C(C(=O)OC/C=C/c2ccccc2)C1c1cccc([N+](=O)[O-])c1 (configuration not stated) [CILNIDIPINE] | 26 | 24 | –
CN(C)CCCOc1ccc(C(=O)N2c3ccccc3C=Cc3ccccc32)cc1 | – | – | half-life [5]: > 60 h
NC(N)=NCCCOc1ccc(C(=O)N2c3ccccc3Oc3ccccc32)cc1 | – | 164 | –
CN(C)CCCOc1ccc(C(=O)N2c3ccccc3CCc3ccccc32)cc1 | – | – | half-life [5]: > 60 h
O=C(c1ccc(OCCCN2CCOCC2)cc1)N1c2ccccc2Oc2ccccc21 | – | 133 | –
O=C(c1ccc(OCCCN2CCOCC2)cc1)N1c2ccccc2CCc2ccccc21 | 78 | 80 | –
O=C(c1ccc(OCCCN2CCCC2)cc1)N1c2ccccc2Oc2ccccc21 | – | 49 | –
Cc1cccc(C)c1Oc1ccccc1NC(=O)c1ccc(OCCCN(C)C)cc1 | 62 | 55 | –
